A short description of data set [1]: In-vitro liver microsomal stability (human). The data set is classed as in vitro ADME. Conditions: Human liver microsomes, 1 µM, 0.5 mg/mL, NADPH. As to the method:
(§1) Test Example 3. Evaluation of In-Vitro Liver Microsomal Stability
(§2) • 1) Preparation of test sample working solution: A test sample was diluted to 100 µM with methanol. • 2) Preparation of liver microsome working solution: Liver microsomes were diluted to 0.56 mg/mL with 100 mM phosphate-buffered saline. • 3) Preparation of working solution of reduced nicotinamide adenine dinucleotide phosphate (NADPH): A proper amount of NADPH was weighed out and diluted to 20 mM with phosphate-buffered saline, and then an equal volume of a 60 mM MgCl2 solution was added. • 4) Preparation of stop solution: Tolbutamide was diluted to 20 ng/mL with acetonitrile to serve as a stop solution containing an internal standard.
(§3) • 1) Anti-adsorption EP tubes for incubation were prepared and labeled with species, test samples, control samples (testosterone and dextromethorphan), time points (0 min, 5 min, 10 min, 20 min, 30 min, 60 min, Blank60, and NCF60), etc. • 2) 2 µL of test or control sample working solution and 178 µL of liver microsome working solution were added to each tube. For the Blank tube, 2 µL of acetonitrile was added instead of the test sample. The tubes were preincubated in a water bath at 37 °C for about 10 min, with 3 replicates set up for each sample. • 3) After the pre-incubation was completed, 20 µL of NADPH working solution was added to each tube except for the 0 min and NCF60 tubes to start the reaction. For the NCF60 tube, 20 µL of phosphate-buffered saline (containing 30 mM MgCl2) was added. In the incubation system, the final concentration of the test or control sample was 1 µM, the final concentration of liver microsomes was 0.5 mg/mL, the final concentration of NADPH was 1 mM, and the final concentration of MgCl2 was 3 mM. • 4) For the 0 min sample, 600 µL of stop solution was added, followed by the addition of the NADPH working solution. For the other samples, after each of them was incubated for the corresponding time, 600 µL of stop solution was added to stop the reaction. • 5) After the reaction was stopped, each sample was vortexed for 30 s and then centrifuged at 13500 rpm for 10 min. Then, 100 µL of the supernatant was transferred to an EP tube, and 100 µL of Milli-Q water was added. The mixture was well mixed by vortexing and analyzed by LC-MS/MS. • 6) Testosterone and dextromethorphan were used as positive control samples under the same conditions to assess the stability and reliability of the system.
Table 2: Test data for the compounds of the present disclosure in human and rat liver microsomes
Background: Microsomes from liver hold many membrane-bound enzymes, among them those of drug oxidation.

Data set [2] deals with 5-HT2A receptor (Homo sapiens, UniProt P28223). Briefly: Assay for 5-HT2A receptor inverse agonist activity (NIH3T3-5-HT2A R cells, Bright-Glo luciferase, cell inhibition rate).
Procedure: Assay for 5-HT2A Receptor Inverse Agonist Activity
• Cell line: adherent cells NIH3T3-5-HT2A R • Cell culture medium: DMEM + 10% FBS (purchased from GBICO) • Cell culture plate: 96-well white/clear bottom plate (purchased from Perkin Elmer) • Detection kit: Bright-Glo™ Luciferase (purchased from Promega) • Detection instrument: BioTek multimode microplate reader
NIH3T3-5HT2A R cells in the logarithmic growth phase were seeded into a 96-well white/clear bottom plate at a density of 1000 cells/well and then cultured overnight in an incubator at 37 °C with 5% CO2. […] Duplicate wells were set up for each concentration. […] After the drug addition, the cells were cultured in the incubator at 37 °C with 5% CO2 for another 120 h. On the sixth day, a Bright-Glo™ Luciferase reagent was added to the cells in a volume equal to that of the cell culture medium. The plate was then incubated in the dark at room temperature for 20 min, with the plate shaker vibrating once every 5 min. The luminescence intensity was detected using a microplate reader, and the cell inhibition rate was calculated. Data were processed using GraphPad Prism 7.0 to obtain the cell inhibition rate curve and calculate IC50.
Data set [3] can be described thus: In-vitro liver microsomal stability (dog). The data set is classed as in vitro ADME. The settings on record: Dog liver microsomes, 1 µM, 0.5 mg/mL, NADPH. The protocol:
as §1, §2
as §3, with “system. […]” for “system.”

In data set [4] the target is hERG potassium channels (Homo sapiens, UniProt Q12809). The data set can be described thus: cell-based.
Procedure: • Species & strain: CHO-hERG cell line (Chinese hamster ovary cells stably expressing hERG channels) • Culture medium: 90% F12, 10% fetal bovine serum, 100 µg/mL G418, and 100 µg/mL Hygromycin B • Culture conditions: incubator at 37 °C with 5% CO2 • Cryopreservation condition: liquid nitrogen
On the day of the test, the compound was diluted with DMSO to an intermediate concentration. Then, 10 µL of the intermediate-concentration compound was transferred to 4990 µL of extracellular fluid, achieving a 500-fold dilution to obtain the final concentration to be tested.
hERG potassium channel currents were recorded at room temperature by the whole-cell patch clamp technique in the CHO (Chinese hamster ovary) cells stably expressing hERG potassium channels. Glass microelectrodes were formed by pulling a glass electrode blank (BF150-86-10, Sutter) using a puller. The tip resistance after perfusion of electrode internal solution was about 2-5 MΩ. The glass microelectrodes could be connected to a patch clamp amplifier after being inserted into amplifier probes. The clamping voltage and data recording were controlled and recorded by a computer with a pClamp 10 software, with a sampling frequency of 10 kHz and a filtering frequency of 2 kHz. After achieving the whole-cell recording, the cells were clamped at -80 mV. The step voltage evoking hERG potassium current (IhERG) was changed from -80 mV to +20 mV by applying a 2 s depolarization voltage, followed by repolarization to -50 mV for 1 s, and then returned to -80 mV. This voltage stimulation was applied every 10 s, and after it was determined that the hERG potassium currents were stable (1 min), the administration process was started. Each test concentration of the compound was applied for at least 1 min, and at least 2 cells (n ≥ 2) were tested for each concentration.
The mark [5] stands for this setting: 5-HT2A inverse agonist activity IC50 (nM), NIH3T3-5HT2A R cells, 120 h, luminescence.

Read-outs that look alike come from different tables or passages of the source.

A word on the IC50: it is the midpoint of a concentration-inhibition curve. Read a high IC50 as lower potency.

hERG potassium channels, sequence (Q12809 whole entry): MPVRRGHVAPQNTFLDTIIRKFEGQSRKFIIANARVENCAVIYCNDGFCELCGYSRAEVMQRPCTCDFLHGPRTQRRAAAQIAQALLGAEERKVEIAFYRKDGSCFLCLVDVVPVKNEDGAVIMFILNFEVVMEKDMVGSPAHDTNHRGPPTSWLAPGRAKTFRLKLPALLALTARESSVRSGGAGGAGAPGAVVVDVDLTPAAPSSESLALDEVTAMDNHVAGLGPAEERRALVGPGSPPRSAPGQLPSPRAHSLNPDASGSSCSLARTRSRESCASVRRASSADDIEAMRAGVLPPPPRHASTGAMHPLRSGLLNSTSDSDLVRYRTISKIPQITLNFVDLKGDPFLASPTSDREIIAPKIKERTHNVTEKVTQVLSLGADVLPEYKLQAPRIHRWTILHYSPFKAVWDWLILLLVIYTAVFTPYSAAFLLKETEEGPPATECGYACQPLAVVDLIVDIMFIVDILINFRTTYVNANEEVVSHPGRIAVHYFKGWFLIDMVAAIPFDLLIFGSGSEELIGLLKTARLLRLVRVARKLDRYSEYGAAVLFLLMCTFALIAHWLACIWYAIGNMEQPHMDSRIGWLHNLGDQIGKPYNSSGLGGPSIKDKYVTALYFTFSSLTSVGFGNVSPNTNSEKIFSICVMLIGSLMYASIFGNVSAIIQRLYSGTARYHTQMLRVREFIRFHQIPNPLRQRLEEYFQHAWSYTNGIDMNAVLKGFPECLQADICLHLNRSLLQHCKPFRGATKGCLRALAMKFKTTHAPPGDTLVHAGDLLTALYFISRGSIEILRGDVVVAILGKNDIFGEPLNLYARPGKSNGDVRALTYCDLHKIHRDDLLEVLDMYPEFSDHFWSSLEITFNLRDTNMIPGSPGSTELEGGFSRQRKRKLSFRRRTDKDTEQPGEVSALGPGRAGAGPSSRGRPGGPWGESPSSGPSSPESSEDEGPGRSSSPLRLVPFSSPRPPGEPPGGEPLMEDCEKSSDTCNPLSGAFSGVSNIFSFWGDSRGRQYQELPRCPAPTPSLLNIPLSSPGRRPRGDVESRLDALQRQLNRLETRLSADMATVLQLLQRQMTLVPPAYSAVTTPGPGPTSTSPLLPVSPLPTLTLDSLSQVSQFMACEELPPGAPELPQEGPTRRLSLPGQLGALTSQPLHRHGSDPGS
5-HT2A receptor, sequence (P28223 whole entry): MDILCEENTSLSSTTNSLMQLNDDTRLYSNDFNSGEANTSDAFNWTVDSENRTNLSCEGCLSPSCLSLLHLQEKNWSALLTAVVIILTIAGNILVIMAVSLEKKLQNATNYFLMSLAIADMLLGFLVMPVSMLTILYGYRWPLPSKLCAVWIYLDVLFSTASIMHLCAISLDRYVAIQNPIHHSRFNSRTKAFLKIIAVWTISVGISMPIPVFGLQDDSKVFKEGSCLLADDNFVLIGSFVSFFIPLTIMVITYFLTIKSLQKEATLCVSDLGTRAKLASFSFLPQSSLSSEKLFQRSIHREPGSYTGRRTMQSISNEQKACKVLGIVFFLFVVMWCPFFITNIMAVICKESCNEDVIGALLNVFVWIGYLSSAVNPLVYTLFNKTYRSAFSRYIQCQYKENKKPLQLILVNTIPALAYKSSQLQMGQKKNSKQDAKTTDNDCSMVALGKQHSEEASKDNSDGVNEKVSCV

For the compound `CN1CCC(N(Cc2ccc(F)cn2)C(=O)NCc2ccc(OCC(F)(F)F)nc2)C(F)(F)C1` (single isomer, unassigned) [Compound 46A], the “Remaining amount% at 60 min” value was found to be 1.21% in data set [1] and 40.77% in data set [3]. The IC50 in data set [2] (setting [5]) is over 1000 nM.

With `CN1CCC(N(Cc2ccc(F)cn2)C(=O)NCc2ccc(OCC(F)(F)F)nc2)C(C)(C)C1` (single isomer, unassigned) [Compound 49A], the IC50 in data set [2] (setting [5]) worked out at 105 nM.

With `CN1CCC(N(Cc2ccc(F)cn2)C(=O)NCc2ccc(OCC(F)(F)F)nc2)C(C)(C)C1` (single isomer, unassigned) [Compound 49B], in data set [2] (setting [5]), the IC50 was over 1000 nM.

Turning to `CN1CCC(N(Cc2ccc(F)cn2)C(=O)NCc2ccc(OCC(F)(F)F)nc2)C2(CC2)C1` (single isomer, unassigned) [Compound 50B], the half-inhibitory concentration (IC50) in data set [2] (setting [5]) amounted to 381 nM.

For the compound `O=C(NCc1ccc(OCC(F)(F)F)nc1)N(Cc1ccc(F)cn1)C1CCNCC1F` (single isomer, unassigned) [Compound 56A], the half-maximal inhibitory concentration (IC50) in data set [4] is 15500 nM; in data set [2] (setting [5]), over 1000 nM.

On to `O=C(NCc1ccc(OCC(F)(F)F)nc1)N(Cc1ccc(F)cn1)C1CCNCC1F` (single isomer, unassigned) [Compound 56B], for which the IC50 in data set [4] stood at 12600 nM; in data set [2] (setting [5]), 325 nM.

For `CCN1CC[C@@H](N(Cc2ccc(F)cn2)C(=O)NCc2ccc(OCC(F)(F)F)nc2)[C@@H](F)C1` (single isomer, unassigned) [Compound 69A], in data set [2] (setting [5]), the IC50 was over 1000 nM.

In data set [2] (setting [5]), `CCN1CC[C@H](N(Cc2ccc(F)cn2)C(=O)NCc2ccc(OCC(F)(F)F)nc2)[C@H](F)C1` (single isomer, unassigned) [Compound 69B] showed a half-inhibitory concentration (IC50) of 156 nM.

Consider `CC(C)N1CC[C@@H](N(Cc2ccc(F)cn2)C(=O)NCc2ccc(OCC(F)(F)F)nc2)[C@@H](F)C1` (single isomer, unassigned) [Compound 70A], for which the IC50 in data set [2] (setting [5]) was over 1000 nM.

The compound `CC(C)N1CC[C@H](N(Cc2ccc(F)cn2)C(=O)NCc2ccc(OCC(F)(F)F)nc2)[C@H](F)C1` (single isomer, unassigned) [Compound 70B] had a 50% inhibitory concentration (IC50) in data set [2] (setting [5]) of 280 nM.

Take `[2H]C([2H])([2H])N1CC[C@@H](N(Cc2ccc(F)cn2)C(=O)NCc2ccc(OCC(F)(F)F)nc2)[C@@H](F)C1` (single isomer, unassigned) [Compound 72A]: the IC50 in data set [2] (setting [5]) stood at 416 nM.

In data set [2] (setting [5]), `[2H]C([2H])([2H])N1CC[C@H](N(Cc2ccc(F)cn2)C(=O)NCc2ccc(OCC(F)(F)F)nc2)[C@H](F)C1` (single isomer, unassigned) [Compound 72B] yielded an IC50 of 43.7 nM.

In data set [2] (setting [5]), `CN1CCC(N(Cc2ccc(F)cc2)C(=O)NCc2ccc(OCC(F)(F)F)nc2)C2(CC2)C1` (single isomer, unassigned) [Compound 83A] displayed a concentration for half-maximal inhibition (IC50) of 10.4 nM.

As to `CN1CCC(N(Cc2ccc(F)cc2)C(=O)NCc2ccc(OCC(F)(F)F)nc2)C2(CC2)C1` (single isomer, unassigned) [Compound 83B], the IC50 in data set [2] (setting [5]) came to 211 nM.

Turning to `CN1CC[C@@H](N(Cc2ccc(F)cc2)C(=O)NCc2ccc3c(ccn3C)c2)[C@@H](F)C1` (single isomer, unassigned) [Compound 85A], the IC50 in data set [2] (setting [5]) is over 1000 nM.

Turning to `CN1CC[C@H](N(Cc2ccc(F)cc2)C(=O)NCc2ccc3c(ccn3C)c2)[C@H](F)C1` (single isomer, unassigned) [Compound 85B], the 50% inhibitory concentration (IC50) in data set [2] (setting [5]) turned out to be 88.7 nM.

Consider `CN1CCC(N(Cc2ccc(F)cn2)C(=O)NCc2ccc(OC3CC3)cn2)CC1` [Compound 2], for which the “Remaining amount% at 60 min” value in data set [1] was found to be 79.7%; in data set [3], 76.7%. In data set [2], this compound displayed a half-maximal inhibitory concentration (IC50) of 72.8 nM.

For `CN1CCC(N(Cc2ccc(F)cn2)C(=O)NCc2ccc(OCC3CC3)cn2)CC1` [Compound 3], the “Remaining amount% at 60 min” value worked out at 94.1% in data set [1] and 100.0% in data set [3]. This compound had an IC50 in data set [2] of 149 nM.

In data set [2], `CN1CCC(N(Cc2ccc(F)cn2)C(=O)NCc2ccc(OCC3CC3(C)C)cn2)CC1` (stereo not drawn) [Compound 4] showed a half-maximal inhibitory concentration (IC50) of over 1000 nM.

Take `CN1CCC(N(Cc2ccc(F)cn2)C(=O)NCc2ccc(OCC(F)(F)F)nc2)CC1` [Compound 5]: the “Remaining amount% at 60 min” value is given as 99.9% in data set [1] and 99.8% in data set [3]. Moreover, in data set [2] (setting [5]), the IC50 came out at 13.1 nM.

For the compound `CN1CCC(N(Cc2ccc(F)cn2)C(=O)NCc2ccc(OC3CC(F)(F)C3)nc2)CC1` [Compound 6], the “Remaining amount% at 60 min” value in data set [1] came to 90.8%; in data set [3] it was 98.8%. In addition, the IC50 in data set [2] (setting [5]) amounted to 25.4 nM.

For the compound `CC(C)COc1ccc(CNC(=O)N(Cc2ccc3ncccc3c2)C2CCN(C)CC2)cc1` [Compound 7], the concentration for half-maximal inhibition (IC50) in data set [4] is 1320 nM; in data set [2], over 1000 nM.

For `CC(C)COc1ccc(CNC(=O)N(Cc2ccc3ncccc3c2)C2CCN(C)CC2)nc1` [Compound 8], the half-maximal inhibitory concentration (IC50) in data set [2] is over 1000 nM.

Compound `CN1CCC(N(Cc2ccc(F)cn2)C(=O)NCc2ccc3nc[nH]c3c2)CC1` [Compound 11] came in with an IC50 in data set [2] of 672 nM.

Turning to `CN1CCC(N(Cc2ccc(F)cn2)C(=O)NCc2ccc3c(c2)c(F)cn3C)CC1` [Compound 13], the IC50 in data set [2] amounted to 184 nM.

For `CN1CCC(N(Cc2ccc(F)cn2)C(=O)NCc2ccc3occc3c2)CC1` [Compound 57], the half-inhibitory concentration (IC50) in data set [4] was determined as 1440 nM; in data set [2] (setting [5]), 51.9 nM.

Consider `CN1CCC(N(Cc2ccc(F)cn2)C(=O)NCc2ccc3sccc3c2)CC1` [Compound 58], for which the IC50 in data set [2] amounted to 41 nM.

As for `CN1CCC(N(Cc2ccc(F)cn2)C(=O)NCc2ccc3c(c2)C=CC3)CC1` [Compound 59], the values for the IC50 in data set [4] and in data set [2] were 1480 nM and 86.1 nM, respectively.

In turn, `CN1CCC(N(Cc2ccc(F)cn2)C(=O)NCc2ccc3c(c2)CCC3)CC1` [Compound 60] returned an IC50 in data set [2] of 64.4 nM.

Take `CN1CCC(N(Cc2ccc(F)cn2)C(=O)NCc2ccc3ccccc3c2)CC1` [Compound 61]: the IC50 in data set [2] turned out to be 79.2 nM.

For the compound `CN1CC2CCC(C1)C2N(Cc1ccc(F)cn1)C(=O)NCc1ccc(OCC(F)(F)F)nc1` (stereo not drawn) [Compound 77], in data set [2], the half-maximal inhibitory concentration (IC50) was over 1000 nM.

Turning to `CN1C2CCC1CC(N(Cc1ccc(F)cn1)C(=O)NCc1ccc(OCC(F)(F)F)nc1)C2` (stereo not drawn) [Compound 79], in data set [2], the 50% inhibitory concentration (IC50) was 771 nM.

As to `Cc1cc(CN(C(=O)NCc2ccc(OCC(F)(F)F)nc2)[C@@H]2CCN(C)C[C@@H]2F)nn1C` [Compound 82A], in data set [2], the half-maximal inhibitory concentration (IC50) was over 1000 nM.

Consider `Cc1cc(CN(C(=O)NCc2ccc(OCC(F)(F)F)nc2)[C@H]2CCN(C)C[C@H]2F)nn1C` [Compound 82B], for which the 50% inhibitory concentration (IC50) in data set [2] was 664 nM.

`CN1CCC(N(Cc2ccc(F)cn2)C(=O)NCc2ccc3c(c2)c(C(F)(F)F)cn3C)CC1` [Compound 84] registered a half-inhibitory concentration (IC50) in data set [2] of over 1000 nM.

`CN1CC[C@@H](N(Cc2ccc(F)cc2)C(=O)NCc2ccc3ncccc3c2)[C@@H](F)C1` [Compound 86A]: the IC50 in data set [2] is over 1000 nM.

`CN1CC[C@H](N(Cc2ccc(F)cc2)C(=O)NCc2ccc3ncccc3c2)[C@H](F)C1` [Compound 86B] came in with a 50% inhibitory concentration (IC50) in data set [2] of 36.8 nM.

With `CC(C)COc1ccc(CNC(=O)N(Cc2ccc(F)cc2)C2CCN(C)CC2)cc1` [Pimavanserin, reference compound], the entries for the “Remaining amount% at 60 min” value in data set [1] and in data set [3] were 70.7% and 68.5%, respectively.

Values taken from patent EP4570793A1, “5-HT2A RECEPTOR INVERSE AGONIST, AND PREPARATION METHOD THEREFOR AND USE THEREOF” (Luye Innomind Pharma Shijiazhuang Co., Ltd., priority 2022, dated 2024).
